Measurements as given in patent US20050276794A1, “Composition and method for improving pancreatic islet cell survival” (priority 2004, published 2005).

Columns and labels:
[1] = system: isolated islet cells; type: cell-based
Description: Single islets were hand-picked from a Petri dish under microscopy and transferred to wells in a 96-well microculture plate. Micronutrients comprising alpha-tocopherol (50 μM), gamma-tocopherol (50 μM), and succinate (5 μM) were added to wells in various combinations, with regular media (no added micronutrients) used as control. Islet cell survival was indicated by maintenance of a more compact cell mass, with disruption of the cell mass indicating islet cell death detected by microscopic means. […] Samples are shown in duplicate (a—middle panel, and b—bottom panel), with the corresponding control in the top panel.

[2] = system: porcine islets; experiment: Islet morphology under anoxia (photomicrographs); type: cell-based; conditions: 100 μM alone; up to 30 hrs anoxia; versus untreated islets
Description: Porcine islets were hand picked and placed in wells (one islet/well in triplicates) in a 96 micro plate. The islets were pre-incubated either in regular porcine culture media (M199) or in media supplemented with alpha-tocopherol 100 μM, gamma-tocopherol 100 μM or the combination of alpha-+gamma-tocopherol, 50 μM each prior to exposure to anoxia. Islets were then incubated for additional 30 hrs either under normoxia (control—95% Air, 5%CO2) or anoxia (95%N2, 5%CO2) in the presence or absence of the indicated vitamin E concentration. At four different time points (0 h, 12 h, 24 h and 30 h), islets were removed from the incubator, examined microscopically and photomicrographs were obtained. Panel A: Porcine islets cultured with regular porcine culture media (M199) under anoxia. As indicated by the photomicrographs, anoxia caused a significant change in to the islet morphology. […]
Porcine islets were isolated and then cultured for 48 hours according to standard protocols Islets were then cultured for an additional 18-24 hours in media in the presence or absence of alpha-tocopherol and gamma-tocopherol (50 μM each). […] Islet quality was assessed at time intervals ranging from 6 to 24 hours from the initiation of exposure to anoxia with Oxygen Consumption Rate (OCR), ATP, Caspase 3/7 activity measurements (all normalized to DNA), microphotography and transplantation into diabetic nude mice. […]

[3] = isolated islet cells in culture medium

Row | SMILES | concentration at which increased benefit is noted [1, 3] | concentration at which protective effect is exhibited [1, 3] | islet morphology after exposure to anoxia [2] | protective benefit for preventing cell death in isolated islet cells (comparison) ([1]; compared with alpha-tocopherol or either tocopherol alone)
1 | Cc1c(C)c2c(c(C)c1O)CC[C@@](C)(CCC[C@H](C)CCC[C@H](C)CCCC(C)C)O2 [alpha-tocopherol] | at least 50 μM | at least 10 μM | more normal morphology | 
2 | Cc1c(O)cc2c(c1C)O[C@](C)(CCC[C@H](C)CCC[C@H](C)CCCC(C)C)CC2 [gamma-tocopherol] |  |  | more normal morphology | more protective benefit
